According to patent EP4570244A1, “ENHANCING AGENT OF CARDIOLIPIN MOLECULAR SPECIES THAT IS MITOCHONDRIAL COMPONENT” (Watanabe Oyster Laboratory Co., Ltd., priority 2022, dated 2024):

Key:
[1] = test system: Human renal proximal tubule cells (HK-2); assay: Cardiolipin measurement by LC-MS/MS in HK-2 cells under oxidative stress stimulation; format: cell-based
Description: (§1) Human renal proximal tubule cells (HK-2) were subcultured in Dulbecco's Modified Eagle's Medium (DMEM, Nacalai Tesque) containing 10% fetal bovine serum and 1% penicillin-streptmycin at 37°C in a 5% CO2 incubator. The following experiments were conducted using the oxidative stress inducer to confirm the cardiolipin increase effect of DHMBA on the oxidative stress.
HK-2 cells were seeded in a 6-well plate at a density of 1.0 × 10^5 cells/well and cultured for 24 hours. The cells were then divided into four groups with different stimulus conditions, and 2 mL thereof was added to each well.
The above-described four groups with the different stimulus conditions are as follows.
Control group (culture medium); oxidative stress group (final concentration 100 µM Oxidative Stress); oxidative stress + DHMBA 250 group (final concentration 100 µM Oxidative Stress + final concentration 250 µM DHMBA); and oxidative stress + DHMBA 500 group (final concentration 100 µM Oxidative Stress + final concentration 500 µM DHMBA).
After 24 hours, the cells were washed twice with phosphate-buffered saline (hereinafter referred to as PBS), and then 1 mL of PBS was added to each well and the cells were recovered using a scraper. In this cell suspension, 100 µL was used for protein quantification by a bicinchoninic acid (BCA) method. The protein concentration was used for correction of the cardiolipin concentration. The remaining cell suspension was centrifuged at 1,200 rpm for 5 minutes, the supernatant was removed, and then the precipitated cells were stored at -80°C.
For the cardiolipin measurement, the total intracellular lipids were extracted in the same way as in the previous reports (Chen Z, et al. Metabolomics, 16: 115, 2020).
In short, the lipids in the sample were extracted using hexane/isopropanol 3:2 (v/v, with 0.05% butylated hydroxytoluene), and then dried and hardened in an evaporator. Next, the sample was dissolved in methanol (MeOH), and insoluble substances were removed by centrifugation at 15,000 rpm for 15 minutes at 4°C. The total lipids extracted were stored at -80°C. The cardiolipin measurement was performed using LC-MS/MS, following the same procedure as before.

[2] = test system: CDS2; assay: qPCR expression level of cardiolipin biosynthesis-related gene in HK-2 cells under oxidative stress; format: cell-based, Human; details: oxidative stress + DHMBA, 24 hours, versus the increase in the oxidative stress group, corrected with β-actin, FIG. 5
Description: as §1
(§2) HK-2 cells were seeded in a 6-well plate at a density of 5.0 × 10^4 cells/well and cultured for 24 hours.
(§3) Next, under the same stimulus conditions as described above, 2 mL thereof was added to each well. After 24 hours, total RNA was recovered using NucleoSpin (registered trademark) RNA Kit (MACHEREY-NAGEL). The concentration of the purified RNA was quantified by Nanodrop (Invitrogen). From 1.0 µg of the total RNA, cDNA was synthesized according to a protocol for ReverTra Ace (registered trademark) qPCR RT Master Mix with gDNA Remover (TOYOBO).
(§4) The gene expression levels were measured according to a protocol for THUNDERBIRD (registered trademark) SYBR (registered trademark) qPCR Mix (TOYOBO). Measurements were performed using a CFX Connect™ real-time PCR analysis system (BioRad), and analyzed using a 2^-(ΔΔCT) method.
(§5) The gene expression level of the control group was set at 1 for comparison. The figures are expressed as mean ± SD (n = 4 for each group). […]

[3] = test system: HADHB; assay: qPCR expression level of cardiolipin remodeling and degradation-related gene in HK-2 cells under oxidative stress; format: cell-based, Human; details: oxidative stress + DHMBA, 24 hours, corrected with β-actin, FIG. 6
Description: as §1, §2, §3, §4, §5

[4] = test system: PNPLA8; assay: as above; format: cell-based, Human; details: oxidative stress + DHMBA, 24 hours, versus the increase in the oxidative stress group, corrected with β-actin, FIG. 6
Description: as §1, §2, §3, §4, §5

[5] = oxidative stress + DHMBA, acyl group distribution, FIG. 4

## COc1c(O)cc(CO)cc1O [DHMBA, 3,5-dihydroxy-4-methoxybenzyl alcohol]
[1]; 100 µM oxidative stress inducer + DHMBA (250 or 500 µM), 24 hours, almost all species, FIG. 2
  cardiolipin molecular species: increased significantly
[1]; co-treatment with 100 µM oxidative stress and 250 µM or 500 µM DHMBA, 24 hours, increase, FIG. 3
  total cardiolipin content: about 1.5 times
[1]; [5]
  saturated fatty acid chain FA16:0 of cardiolipin: decreased
  unsaturated fatty acid chain FA18:1 of cardiolipin: increased
  unsaturated fatty acid chain FA18:2 of cardiolipin: increased
[2]
  gene expression level of CDS2: decreased to the same level as the control group
[3]
  expression level of HADHB: increased
[4]
  gene expression level of PNPLA8: decreased to the same level as the control group
